The text below walks through data of patent publication US7144881B2, “Arylcyclopropylcarboxylic amides as potassium channel openers” (Bristol-Myers Squibb Company, priority 2002, dated 2006).

Assay [1] addresses voltage-gated K+ channel KCNQ2 (Homo sapiens, UniProt O43526). Nature of the assay: Thallium flux assay for openers of KCNQ potassium channels. The format is cell-based. The settings on record: 10 point concentration series, 50% of the maximal response. The text has this:
A thallium flux assay was used to detect and characterize openers of KCNQ potassium channels. The thallium assay is generally described in International application WO 02/31508 published Apr. 18, 2002. More specifically, the thallium influx assay to detect compounds that block or open the voltage-gated K^+ channel KCNQ2 is described in Example IV of the published WO 02/31508 application.
For data analysis, the amplitude of the average of the negative controls was subtracted from all wells. The amplitudes of the test compounds were then compared to the value of four standard deviations of the negative control wells. The lowest concentration of a test compound sufficient to generate a signal amplitude greater than or equal to four standard deviations from the amplitude of the negative controls was defined as the minimal active concentration.
For generating EC50 values, compounds were serially diluted in 1:3 volume increments to produce a 10 point concentration series. EC50 values were calculated by fitting the resulting amplitudes to a single-site logistic equation. EC50 was defined as the concentration of test compound required to yield 50% of the maximal response. Maximal response (Maximal opening) was the largest signal amplitude above the negative control generated by any concentration of a test compound.

The next assay has as its target T1, mKCNQ2 channels (Mus musculus, UniProt Q9Z351).
T1 construct: expressed in transfected cells
Description: Whole-cell patch-clamp recordings of mKCNQ2 currents. In kind it is cell-based. To be noted: HEK 293 stable cell line expressing mKCNQ2. The protocol:
Whole-cell patch-clamp recordings were made from an HEK 293 stable cell line expressing mKCNQ2 channels, maintained in culture for 1–2 days. Patch pipettes had initial resistances of 2.5–4 MΩ. Currents were recorded with an EPC-9 amplifier (HEKA, Lambrecht, Germany) controlled with software (Pulse, HEKA) run on a standard lab PC. Series resistance compensation was used during current recording, and set at 80%. The series resistance (R) and cell capacitance (C) were determined electronically by subtracting the capacitive currents at the onset and offset of a 5 mV voltage step. The cancellation of whole-cell capacitive transients was virtually complete in all cells. Analog current signals were low-pass filtered at 2.9 kHz using a four-pole Bessel filter −3 dB) and stored on a local network server computer at a sampling rate of […]. All recordings were performed at room temperature (20–22° C.). The pipette solution contained (mM): KCl, 150; CaCl2, 2.5; EGTA, 5; MgCl2, 1; HEPES, 10; pH to 7.3 with KOH, and Osmolality of 290–300 mOsm. The extracellular solution contained (mM): NaCl, 140; KCl, 2.5; CaCl2, 2.5; MgCl2, 1; glucose, 10; HEPES, 10; pH to 7.3 with NaOH, and Osmolality of 305–310 mOsm […]

In the case of `O=C(N[C@@H](CO)c1ccc2ccccc2c1)C1CC1c1ccccc1Cl` (stereo partly drawn) [Example 9, 2-(2-Chloro-phenyl)-cyclopropanecarboxylic acid(2-hydroxy-1-naphthalen-2-yl-ethyl)-amide], the concentration giving a half-maximal response (EC50) in assay [1] turned out to be 0.022 µM. This lies in the double-digit nanomolar range.

Turning to `O=C(N[C@@H](CO)c1ccc2ccccc2c1)C1CC1c1ccccc1F` (stereo partly drawn) [Example 11, 2-(2-Fluoro-phenyl)-cyclopropanecarboxylic acid(2-hydroxy-1-naphthalen-2-yl-ethyl)-amide], the half-maximal effective concentration (EC50) in assay [1] was determined as 1.44 µM. This EC50 lies about 65-fold higher than the previous one.

Take `O=C(N[C@@H](CO)c1ccc2ccccc2c1)C1CC1c1ccc(F)cc1` (stereo partly drawn) [Example 13, 2-(4-Fluoro-phenyl)-cyclopropanecarboxylic acid(2-hydroxy-1-naphthalen-2-yl-ethyl)-amide]: the EC50 was determined as 0.012 µM in assay [1] and 0.597 µM at mKCNQ2 channels (@ −40 mV, room temperature). At mKCNQ2 channels (Imax from Hill-type curve fit), the “Imax (%)” value stood at 1232%.

`O=C(N[C@@H](CO)c1ccc2ccccc2c1)C1CC1c1cc(F)ccc1F` (stereo partly drawn) [Example 14, 2-(2,5-Difluoro-phenyl)-cyclopropanecarboxylic acid(2-hydroxy-1-naphthalen-2-yl-ethyl)-amide] returned a 50% effective concentration (EC50) in assay [1] of 0.001 µM.

In assay [1], `O=C(N[C@@H](CO)c1ccc2ccccc2c1)C1CC1c1ccccc1` (stereo partly drawn) [Example 15, 2-(phenyl)-cyclopropanecarboxylic acid(2-hydroxy-1-naphthalen-2-yl-ethyl)-amide] had an EC50 of 0.001 µM.

`C[C@H](NC(=O)[C@@H]1C[C@H]1c1ccccc1)c1cccc(-c2cccnc2)c1` [Example 32, (S)-2-Phenyl-cyclopropanecarboxylicacid [1-(3-pyridin-3-yl-phenyl)-ethyl]-amide]: the response in assay [1] was half-maximal at 0.001 µM (EC50).

`C[C@H](NC(=O)C1CC1c1cccc(F)c1)c1cccc(-c2ccc(Cl)nc2)c1` (stereo partly drawn) [Example 34, (S)-2-(3-Fluoro-phenyl)-cyclopropanecarboxylicacid {1-[3-(6-chloro-pyridin-3-yl)-phenyl]-ethyl}-amide] returned an EC50 in assay [1] of 2.21 µM. This EC50 is about 2200-fold higher than that of the compound before.
